Like-named read-outs stand apart in the source and are kept apart here.

In assay [1] the test system is HL-60(TB) leukemia cell line. Description: cells. The following applies: Homo sapiens; HL-60(TB); read-out: Cytotoxicity log GI50 (converted). The format is cell-based.
Assay [2] concerns HCT-116 colon cancer cell line. Description: NCI in vitro screen, colon cancer HCT-116. It is filed as cell-based. The following applies: Homo sapiens; HCT-1.16 (head); HCT-116 (footnote); read-out: Cytotoxicity log GI50 (converted).
Assay [3] has as its system PC-3 prostate cancer cell line. As to the kind of experiment: NCI in vitro screen, prostate cancer PC-3. The format is cell-based. The following applies: Homo sapiens, read-out: Cytotoxicity log GI50 (converted).
Assay [4] deals with OVCAR-3 ovarian cancer cell line. As to the kind of experiment: NCI in vitro screen, ovarian cancer OVCAR-3. The format is cell-based. The following applies: Homo sapiens, read-out: Cytotoxicity log GI50 (converted).
Assay [5] concerns SF-295 CNS cancer cell line. As to the kind of experiment: NCI in vitro screen, CNS cancer SF-295. It is filed as cell-based. The following applies: Homo sapiens, read-out: Cytotoxicity log GI50 (converted).
Assay [6] concerns MDA-N breast cancer cell line. As to the kind of experiment: NCI in vitro screen, breast cancer MDA-N. It is filed as cell-based. The following applies: Homo sapiens, read-out: Cytotoxicity log GI50 (converted).
For assay [7], the system named is tubulin. Description: Tubulin polymerization assay. The format is biochemical, bovine. The protocol: Electrophoretically homogeneous bovine brain tubulin was purified as described in E. Hamel, et al. Biochemistry 23:4173 (1984).
The tubulin polymerization assay was performed as described in S. Kuo, et al. J. Med. Chem. 36:1146 (1993); L. Li, et al. J. Med. Chem. 37:1126 (1994); and L. Li J. Med. Chem. 37:3400 (1994). In brief, tubulin at 1.2 mg/ml (12 μM) was preincubated for 15 min at 26° C. in a 0.24-ml volume of 0.8 M monosodium glutamate (pH 6.6 with NaOH in a 2 M stock solution) with varying drug concentrations. The drug stock solutions were in DMSO, and the final solvent concentration was 4 % (v/v). All concentrations are in terms of the final reaction volume (0.25 ml). The reaction mixtures were chilled on ice, and 10 μl of 10 mM GTP was added to each reaction mixture. Samples were transferred to cuvettes held at 0° C. by an electronic temperature controller in Gilford spectrophotometers. Baselines were established at 350 nm, and polymerization initiated by a temperature jump to 26° C. The jump took about 50 sec to complete. After 20 min, turbidity readings were recorded, and the temperature controller was set to 0C. When depolymerization was complete, turbidity readings were again recorded. […] IC50 values were obtained graphically from inhibition of polymerization by different drug concentrations.
Electrophoretically, homogeneous bovine brain tubulin was purified as described in Example 6.
The tubulin polymerization assay was performed as described in Example 6.

The subject of assay [8] is NCI-H460 non-small cell lung cancer cell line. As to the kind of experiment: NCI in vitro screen, non-small cell lung cancer NCI-H460. It is filed as cell-based. The following applies: Homo sapiens, read-out: Cytotoxicity log GI50 (converted).
The subject of assay [9] is MDA-MB-435 breast cancer cell line. As to the kind of experiment: NCI in vitro screen, breast cancer MDA-MB-435. It is filed as cell-based. The following applies: Homo sapiens, read-out: Cytotoxicity log GI50 (converted).
Assay [10] concerns NCI's 60 human tumor cell line. Description: NCI 60 human tumor cell line in vitro screen (average / whole panel). The format is cell-based. The following applies: calculated from all cell lines tested, molar concentrations, read-out: average log GI50 (converted).
Assay [11] deals with 786-0 renal cancer cell line. Description: NCI in vitro screen, renal cancer 786-0. The format is cell-based. The following applies: Homo sapiens, read-out: Cytotoxicity log GI50 (converted).
The subject of assay [12] is SK-MEL-5 melanoma cell line. Description: NCI in vitro screen, melanoma SK-MEL-5. It is filed as cell-based. The following applies: Homo sapiens, read-out: Cytotoxicity log GI50 (converted).
The test system of assay [13] is U-251 CNS cancer cell line. As to the kind of experiment: NCI in vitro screen, CNS cancer U-251. The format is cell-based. The following applies: Homo sapiens, read-out: Cytotoxicity log GI50 (converted).
Setting [14] is: Tables 1 and 4, read-out: ITP HC50 ± SD (Inhibition of Tubulin Polymerization).
Setting [15] is: read-out: IC50, inhibition of tubulin polymerization.

For orientation: GI50 means the concentration that inhibits growth by half. `Cc1ccc2c(n1)N=C(c1ccc(F)cc1)CC2=O` [Compound 59, 2-(4'-Fluorophenyl)-7-methyl-1,8-naphthyridin-4-one]: the GI50 in [1] was 14.1 µM; in assay [2], 33.9 µM; in [3], 20.9 µM; in [4] it was 32.4 µM; in assay [5], 37.2 µM; in [6], 11.7 µM. The concentration for 50% growth inhibition (GI50) in [8] was 33.9 µM; in [9] it was 5.89 µM; in assay [10], 32.4 µM; in [11], 41.7 µM; in assay [12], 31.6 µM; in assay [13], 37.2 µM. In addition, the IC50 in [7] (setting [14]) and in [7] (setting [15]) was > 40 µM throughout.

In the case of `Cc1cc(C)c2c(n1)N=C(c1ccc(Cl)cc1)CC2=O` [Compound 66, 2-(4'-Chlorophenyl)-5,7-dimethyl-1 ,8-naphthyridin-4-one], the concentration for 50% growth inhibition (GI50) in assay [1] is 25.1 µM; in assay [2] it was 14.8 µM; in [3], 6.31 µM; in assay [4], 18.2 µM; in [5], 16.2 µM; in assay [6], 3.63 µM. The GI50 in [8] is 22.4 µM; in assay [9], 4.07 µM; in assay [10], 19.5 µM; in [11], 21.4 µM; in assay [12], 14.1 µM; in [13] it was 30.2 µM. In addition, the IC50 in [7] (setting [14]) was 32 ± 8 µM; in assay [7] (setting [15]), 11 to 32 µM.

As for `COc1ccc(C2=Nc3ncc(C)cc3C(=O)C2)cc1` [Compound 53, 2-(4'-Methoxyphenyl)-6-methyl-1,8-naphthyridin-4-one], the GI50 in assay [1] was 2.29 µM; in [2] it was 4.17 µM; in assay [3] it was 5.37 µM; in [4], 2.95 µM; in assay [5] it was 5.25 µM; in assay [6], 1.7 µM. In addition, the GI50 is 4.07 µM in [8]; 1.82 µM in [9]; 6.17 µM in [10]; 5.13 µM in assay [11]; 3.72 µM in assay [12]; 4.17 µM in [13]. The IC50 in [7] (setting [14]) was 7.7 ± 0.7 µM; in assay [7] (setting [15]), 1.5 to 9.8 µM.

Turning to `Cc1cnc2c(c1)C(=O)CC(c1ccc(F)cc1)=N2` [Compound 58, 2-(4'-Fluorophenyl)-6-methyl-1,8-naphthyridin-4-one], the 50% growth inhibitory concentration (GI50) was 2.4 µM in [1]; 24 µM in assay [2]; 25.7 µM in assay [3]; 22.4 µM in assay [4]; 29.5 µM in assay [5]; 3.02 µM in [6]. Also, the 50% growth inhibitory concentration (GI50) was 33.9 µM in [8]; 2.63 µM in [9]; 26.3 µM in [10]; 32.4 µM in [11]; 21.9 µM in [12]; 25.1 µM in assay [13]. In addition, the IC50 in [7] (setting [14]) was 20 ± 2 µM; in assay [7] (setting [15]), 11 to 32 µM.

Regarding `Cc1ccnc2c1C(=O)CC(c1ccc(Cl)cc1)=N2` [Compound 63, 2-(4'-Chlorophenyl)-5-methyl-1,8-naphthyridin-4-one], the GI50 is 1.78 µM in assay [1]; 3.72 µM in assay [2]; 2.88 µM in [3]; 3.16 µM in [4]; 5.37 µM in assay [5]; 1.32 µM in assay [6]. Moreover, the 50% growth inhibitory concentration (GI50) was 3.72 µM in [8]; 0.759 µM in assay [9]; 5.13 µM in assay [10]; 3.98 µM in assay [11]; 3.47 µM in [12]; 4.57 µM in assay [13]. Further, the IC50 is 4.8 ± 1.4 µM in [7] (setting [14]) and 1.5 to 9.8 µM in assay [7] (setting [15]).

As for `O=C1CC(c2ccc(F)cc2)=Nc2ncc(Cl)cc21` [Compound 61, 2-(4'-Fluorophenyl)-6-chloro-1,8-naphthyridin-4-one], the GI50 was 3.89 µM in assay [1]; 17 µM in assay [2]; 21.9 µM in assay [3]; 17.4 µM in [4]; 21.4 µM in assay [5]; 2.95 µM in assay [6]. Besides, the GI50 was 30.2 µM in assay [8]; 2.57 µM in [9]; 21.9 µM in [10]; 32.4 µM in assay [11]; 6.61 µM in assay [12]; 29.5 µM in [13]. In addition, the IC50 in [7] (setting [14]) is 16 ± 3 µM; in [7] (setting [15]) it was 11 to 32 µM.

Values taken from patent publication US6229016A, “Method for treating tumors using 2-aryl-naphthyridin-4-ones” (priority 2000, dated 2001).
